# Columns and labels:
# MDA-MB-231 = test: Anticancer activity against human MDA-MB-231 cells assessed as cell viability incubated for 48 hrs by MTT assay; conditions: MDA-MB-231, 48 h
# MDA-MB-436 = test: Anticancer activity against human MDA-MB-436 cells assessed as cell viability incubated for 48 hrs by MTT assay; conditions: MDA-MB-436, 48 h
Structure (SMILES),IC50 (MDA-MB-231) [µM],IC50 (MDA-MB-436) [µM]
COc1ccccc1NC(=O)N1CCN(c2ncnc3sc(-c4ccc(N5CCN(C)CC5)cc4)cc23)CC1,23.2,26.3
C=CS(=O)(=O)N1CCN(c2nc(OC[C@H]3CCCN3C)nc3sc(-c4ccc(C(=O)N5CCN(C)CC5)cc4)cc23)[C@@H](C)C1,3.33,1.53
C=CS(=O)(=O)N1CCN(c2ncnc3sc(-c4cccc5ncccc45)cc23)CC1,21,25.9
C=CS(=O)(=O)N1CCN(c2ncnc3sc(-c4ccc(OC)nc4)cc23)CC1,9.27,11.9
CN1CCN(c2ccc(-c3cc4c(N5CCN(S(=O)(=O)N6CCCCC6)CC5)ncnc4s3)cc2)CC1,8.13,7.57
C=CS(=O)(=O)N1CCN(c2nc(OC[C@H]3CCCN3C)nc3sccc23)CC1,> 50,> 50
CN1CCN(c2ccc(-c3cc4c(N5CCN(C(=O)Nc6ccccc6)CC5)ncnc4s3)cc2)CC1,7.59,7.09
C=CS(=O)(=O)N1CCN(c2nc(OCC3CCCCN3C)nc3sc(-c4ccc(C#N)cc4)cc23)CC1 (stereo not given),3.18,4.08
CCS(=O)(=O)N1CCN(c2nc(OC[C@H]3CCCN3C)nc3sc(-c4ccc(C(=O)N5CCN(C)CC5)cc4)cc23)CC1,4.2,3.44
C=CS(=O)(=O)N1CCN(c2ncnc3sc(-c4ccc(N5CCOCC5)cc4)cc23)CC1,18.4,17.7
C=CS(=O)(=O)N1CCN(c2ccnc3ccc(-c4ccccc4)cc23)CC1,25.4,25.3
CN1CCN(c2ccc(-c3cc4c(N5CCN(S(=O)(=O)c6ccccc6)CC5)nc(OCC5CCCCN5C)nc4s3)cc2)CC1 (stereo not given),4.42,10.7
C=CS(=O)(=O)N1CCN(c2ncnc3sc(-c4c(C)noc4C)cc23)CC1,28.2,34.6
C=CS(=O)(=O)N1CCN(c2nc(OC[C@H]3CCCN3C)nc3sc(-c4ccc(OC)nc4)cc23)CC1,3.56,4.98
C=CS(=O)(=O)N1CCN(c2ncnc3sc(C4=CCCCC4)cc23)CC1,> 50,> 50
C=CS(=O)(=O)N1CCN(c2ncnc3sc(-c4ccccc4)cc23)CC1,54.2,21.1
COc1ccc(NC(=O)N2CCN(c3ncnc4sc(-c5ccc(N6CCN(C)CC6)cc5)cc34)CC2)cc1,20.9,30.1
CN1CCN(c2ccc(-c3cc4c(N5CCN(C(=O)Nc6ccc(F)cc6F)CC5)ncnc4s3)cc2)CC1,11.4,20.2
C=CS(=O)(=O)N1CCN(c2ncnc3sc(-c4cn(S(=O)(=O)c5ccccc5)c5ccccc45)cc23)CC1,40.4,38
CN1CCN(c2ccc(-c3cc4c(N5CCN(C(=O)Nc6ccc(C#N)cc6)CC5)ncnc4s3)cc2)CC1,3.93,5.01
C=CS(=O)(=O)N1CCN(c2nc(OC[C@H]3CCCN3C)nc3sc(-c4ccc(N5CCN(C)CC5)cc4)cc23)[C@@H](C)C1,2.88,1.92
C=CS(=O)(=O)N1CCN(c2nc(OC[C@H]3CCCN3C)nc3sc(-c4ccc(C#N)cc4)cc23)CC1,3.01,2.29
CN1CCN(c2ccc(-c3cc4c(N5CCN(C(=O)Nc6ccccc6F)CC5)ncnc4s3)cc2)CC1,10.3,14.3
CCCNC(=O)N1CCN(c2ncnc3sc(-c4ccc(N5CCN(C)CC5)cc4)cc23)CC1,8.33,12.4
C=CC(=O)N1CCN(c2nc(OC[C@H]3CCCN3C)nc3sc(-c4ccc(C(=O)N5CCN(C)CC5)cc4)cc23)CC1,5.39,12.2

# From ChEMBL document CHEMBL4837240 (J Med Chem, 2021)
